ChEMBL document CHEMBL6153135, “Rational Design of a Potent, Selective, and Metabolically Stable CDK9 Inhibitor to Counteract Osimertinib Resistance through Mcl-1 Suppression and Enhanced BRD4 Co-Targeting” (J Med Chem, 2025)
Active and inactive are the calls of the source. The rule behind the calls is not given here.

What was measured:
[1] = Drug concentration in tumor of BALB-c nude mouse xenografted with human NCI-H1975 cells at 15 mg/kg, iv measured after 30 mins by LC-MS/MS analysis; format: ADME, organism-based, Neoplasm; settings: read-out: Ct
[2] = system: Osimertinib-resistant NCI-H1975 cell; assay: Anti-proliferative activity against human Osimertinib-resistant NCI-H1975 cells assessed as cell inhibition measured after 72 hrs by MTT assay; format: functional, cell-based
[3] = Metabolic stability in mouse liver microsomes assessed as half life measured for 5 to 60 mins by LC-MS/MS analysis; format: ADME, Microsome; settings: time 5-60 min
[4] = Metabolic stability in human liver S9 fraction assessed as half life measured for 5 to 60 mins by LC-MS/MS analysis; format: ADME, subcellular; settings: time 5-60 min
[5] = Metabolic stability in monkey liver microsomes assessed as clearance measured for 5 to 60 mins by LC-MS/MS analysis; format: ADME, Macaca mulatta, Microsome; settings: rhesus monkey, time 5-60 min, read-out: CLH
[6] = Metabolic stability in human liver microsomes assessed as clearance measured for 5 to 60 mins by LC-MS/MS analysis; format: ADME, Microsome; settings: time 5-60 min, read-out: CLH
[7] = Half life in Sprague-Dawley rat at 2 mg/kg, iv; format: ADME, organism-based; settings: in vivo
[8] = Apparent volume of distribution in Sprague-Dawley rat at 2 mg/kg, iv; format: ADME, organism-based; settings: in vivo, read-out: Vz
[9] = AUC (0 to infinity) in Sprague-Dawley rat at 20 mg/kg, po; format: ADME, organism-based; settings: in vivo
[10] = Apparent volume of distribution in Sprague-Dawley rat at 20 mg/kg, po; format: ADME, organism-based; settings: in vivo
[11] = Oral bioavailability in Sprague-Dawley rat at 20 mg/kg; format: ADME, organism-based; settings: in vivo
[12] = Tmax in BALB/c mouse at 15 mg/kg, po; format: ADME, organism-based; settings: in vivo
[13] = molecular target: CDK9/cyclin T1 (Homo sapiens) (UniProt O60563+P50750); assay: Inhibition of CDK9/cyclin T1 (unknown origin) at 100 nM preincubated for 10 mins followed by substrate/ATP measured after 60 mins by ADP-Glo assay relative to control; format: protein-complex assay; settings: time 70.0 min
[14] = molecular target: CDK2/Cyclin A2 (Homo sapiens) (UniProt P24941+P20248); assay: Inhibition of CDK2/Cyclin A2 (unknown origin) at 100 nM preincubated for 10 mins followed by substrate/ATP measured after 60 mins by ADP-Glo assay relative to control; format: protein-complex assay; settings: time 70.0 min
[15] = species: Homo sapiens; assay: Inhibition of CDK12/Cyclin E1(unknown origin) at 100 nM preincubated for 10 mins followed by substrate/ATP measured after 60 mins by ADP-Glo assay relative to control; settings: time 70.0 min
[16] = molecular target: CDK18/Cyclin Y (Homo sapiens) (UniProt Q07002+Q8ND76); assay: Inhibition of CDK18/Cyclin Y(unknown origin) at 100 nM preincubated for 10 mins followed by substrate/ATP measured after 60 mins by ADP-Glo assay relative to control; format: protein-complex assay; settings: time 70.0 min
[17] = system: NCI-H596; assay: Anti-proliferative activity against human NCI-H596 cells assessed as cell inhibition measured after 72 hrs by MTT assay; format: functional, cell-based; settings: NCI-H596, 72 h
[18] = system: 16HBE14o-; assay: Anti-proliferative activity against human 16-HBE cells assessed as cell inhibition measured after 72 hrs by MTT assay; format: functional, cell-based
[19] = system: Osimertinib-resistant NCI-H1975 cell; assay: Induction of apoptosis in human Osimertinib-resistant NCI-H1975 cells assessed as late apoptotic cells at 0.5 uM incubated for 16 hrs by Annexin V-FITC/PI staining based flow cytometry (reference value: 1.42 %); format: functional
[20] = system: Osimertinib-resistant NCI-H1975 cell; assay: Induction of apoptosis in human Osimertinib-resistant NCI-H1975 cells assessed as necrotic cells at 0.5 uM incubated for 16 hrs by Annexin V-FITC/PI staining based flow cytometry (reference value: 1.17 %); format: functional
[21] = system: Osimertinib-resistant NCI-H1975 cell; assay: Induction of apoptosis in human Osimertinib-resistant NCI-H1975 cells assessed as viable cells at 2 uM incubated for 16 hrs by Annexin V-FITC/PI staining based flow cytometry (reference value: 89.4 %); format: functional; settings: read-out: Activity
[22] = system: HCC827; assay: Anti-proliferative activity against human HCC827 cells assessed as cell inhibition measured after 72 hrs in presence of 250 nM JQ1 by MTT assay; format: functional, cell-based; settings: HCC827, 72 h
[23] = system: HCC827; assay: Selectivity ratio of IC50 for anti-proliferative activity against human HCC827 cells to IC50 for anti-proliferative activity against human HCC827 cells in presence of JQ1; format: functional
[24] = system: Osimertinib-resistant NCI-H1975 cell; assay: Selectivity ratio of IC50 for anti-proliferative activity against human Osimertinib-resistant NCI-H1975 cells to IC50 for anti-proliferative activity against human Osimertinib-resistant NCI-H1975 cells in presence of JQ1; format: functional
[25] = system: Osimertinib-resistant HCC827 cell; assay: Upregulation of c-Myc level in human Osimertinib-resistant HCC827 cells at 100 to 500 nM incubated for 12 hrs by Western blot analysis; format: functional, cell-based; settings: dose 100-500 nM
[26] = molecular target: Cyclin-dependent kinase 9 (Homo sapiens) (UniProt P50750); assay: Inhibition of CDK9 in human Osimertinib-resistant HCC827 cells assessed as decrease in Mcl-1 mRNA level by RNA-Seq analysis; format: cell-based; settings: Osimertinib-resistant HCC827 cell
Sequence of Cyclin-dependent kinase 9 (Homo sapiens) (P50750 whole entry): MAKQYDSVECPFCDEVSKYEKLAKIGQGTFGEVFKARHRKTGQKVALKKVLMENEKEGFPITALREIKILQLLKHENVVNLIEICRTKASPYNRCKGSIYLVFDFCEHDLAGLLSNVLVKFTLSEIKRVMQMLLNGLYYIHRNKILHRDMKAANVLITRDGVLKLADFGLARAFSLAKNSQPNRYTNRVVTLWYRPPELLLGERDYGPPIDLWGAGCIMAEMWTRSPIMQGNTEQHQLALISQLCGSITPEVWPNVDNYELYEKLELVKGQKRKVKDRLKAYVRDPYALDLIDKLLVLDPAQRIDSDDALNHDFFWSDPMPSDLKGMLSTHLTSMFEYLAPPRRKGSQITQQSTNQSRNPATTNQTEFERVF

[27] = system: Osimertinib-resistant HCC827 cell; assay: Inhibition of DNA replication in human Osimertinib-resistant HCC827 cells by KEGG analysis; format: functional, cell-based
[28] = system: Osimertinib-resistant HCC827 cell; assay: Inhibition of homologous recombination repair in human Osimertinib-resistant HCC827 cells by KEGG analysis; format: functional, cell-based
[29] = system: Lung adenocarcinoma organoid; assay: Anti-tumor activity against Osimertinib-resistant patient (#0416)-derived human Lung adenocarcinoma organoid assessed as inhibition of cell viability measured after 96 hrs; format: functional, tissue-based; settings: Neoplasm
[30] = system: Lung adenocarcinoma organoid; assay: Anti-tumor activity against Osimertinib-resistant patient (#0416)-derived human Lung adenocarcinoma organoid assessed as inhibition of cell viability measured after 96 hrs relative to control; format: functional, Neoplasm
[31] = system: Lung adenocarcinoma organoid; assay: Anti-tumor activity against multidrug-resistant patient (#2422)-derived human Lung adenocarcinoma organoid assessed as inhibition of cell viability measured after 96 hrs; format: functional, tissue-based; settings: Neoplasm
[32] = system: Lung adenocarcinoma organoid; assay: Anti-tumor activity against patient (#2223)-derived human Lung adenocarcinoma organoid assessed as inhibition of cell viability measured after 96 hrs; format: functional, tissue-based; settings: Neoplasm
[33] = system: Lung adenocarcinoma organoid; assay: Anti-tumor activity against patient (#2514)-derived human Lung adenocarcinoma organoid assessed as inhibition of cell viability measured after 96 hrs relative to control; format: functional, Neoplasm
[34] = system: NCI-H1975; assay: Antitumor activity against human NCI-H1975 cells xenografted in BALB-c nude mouse at 15 mg/kg, iv administered on every two days relative to control; format: functional; settings: NCI-H1975, 48 h, read-out: TGI
[35] = system: NCI-H1975; assay: Antitumor activity against human NCI-H1975 cells xenografted in BALB-c nude mouse at 30 mg/kg, po administered on every two days relative to control; format: functional; settings: NCI-H1975, 48 h, read-out: TGI
[36] = Antitumor activity against human Osimertinib-resistant HCC827 cells xenografted in BALB-c nude mouse assessed as tumor growth inhibition at 5 mg/kg, iv in presence of JQ1 relative to control; format: functional; settings: Osimertinib-resistant HCC827 cell, read-out: TGI
[37] = Toxicity in BALB-c mouse xenografted with human Osimertinib-resistant HCC827 cells assessed as decrease in body weight at 5 mg/kg, iv in presence of JQ1; format: organism-based; settings: in vivo
[38] = C0 in BALB/c mouse at 2 mg/kg, iv; settings: in vivo

- concentration at 0.5 h [1]: 0.864 µg/mL
- IC50 [2]: 0.05 µM
- half-life [3]: 1.07 h
- half-life [4]: 1.62 h
- microsomal CLint [5]: 23.5 µL/min/mg
- microsomal CLint [6]: 10.8 µL/min/mg
- half-life [7]: 1.57 h
- Vd [8]: 1.9 L/kg
- AUC(0-inf) [9]: 5.96 µg·h/mL
- Vz [10]: 30 L/kg
- bioavailability [11]: 14.3%
- Tmax [12]: 0.56 h
- inhibition [13]: 97.3%
- inhibition [14]: 17.8%
- inhibition [15]: 23.7%
- inhibition [16]: 5.98%
- IC50 [17]: 0.09 µM
- IC50 [22]: 0.0193 µM
- inhibition [26]: Active
- IC50 [29]: < 0.01 µM
- IC50 [31]: 0.121 µM
- IC50 [32]: < 0.05 µM
- C0 [38]: 1.2062 µg/mL
SMILES: CC(=O)N1CCC(NC(=O)c2ccc3cc2OCCCCCCOc2cc(ccc2F)-c2nc(ncc2F)N3)CC1
- IC50 [18]: 0.48 µM
- Activity [19]: 10%
- Activity [20]: 1.46%
- viability at 2 µM [21]: 51%
- Ratio IC50 [23]: 10
- Ratio IC50 [24]: 10
- Activity [25]: Active
- inhibition [27]: Active
- inhibition [28]: Active
- Imax [30]: >98%
- Imax [33]: 99.9%
- inhibition in vivo at 15 mg/kg [34]: 65.8%
- inhibition in vivo at 30 mg/kg [35]: 52.5%
- inhibition in vivo at 5 mg/kg [36]: 71.5%
- Activity [37]: Non-toxic
